Measurements published in patent publication US20070249582A1, “Method of Treating Substance Abuse with Quetiapine” (ASTRAZENECA AB, priority 2001, published 2007).

Tested on: outpatients with bipolar disorder and cocaine dependence
[1] = baseline to exit, all evaluable patients
[2] = baseline to week 12, LOCF, p<0.003

Compound: OCCOCCN1CCN(C2=Nc3ccccc3Sc3ccccc32)CC1 [Quetiapine, 11-(4-[2-(2-hydroxyethoxy)ethyl]-1-piperazinyl)dibenzo[b,f][1.4]-thiazepine]
- Mean amount spent on drugs at baseline (8 completers, baseline, past week): 80.8±105.4 $
- Mean amount spent on drugs at exit (8 completers, week 12, past week): 10.0±17.7 $
- Reduction in amount spent on drugs (8 subjects who completed all 12 weeks, p=0.043): 87%
- Dollar amount spent on drugs [1]: did not decrease significantly
- Percent of positive urine samples [1]: did not decrease significantly
- Brief Psychiatric Rating Scale (BPRS) score [2]: improved significantly
- Young Mania Rating Scale (YMRS) score [2]: improved significantly
- Hamilton Depression Scale (HDRS) score (baseline to week 12, LOCF, p<0.003, mean maximum dose 312.5±95.6 mg/day): improved significantly
- Cravings as measured by the cocaine craving questionnaire (CCQ) (baseline to week 12, p<0.05): significantly decreased
- Tolerability (in vivo): well tolerated
- Withdrawals because of side effects (in vivo): no subjects withdrawing because of side effects
